Counter-ions that a name gives are not always drawn. Like-named read-outs stand apart in the source and are kept apart here.

The term IC50 denotes the concentration that inhibits the measured activity by half.

In this assay the target is PARP-1 enzyme (Homo sapiens (Human), UniProt P09874). The assay is described as follows: Poly(ADP-ribose)polymerase [PARP-1] enzyme inhibitory activity (Trevigen PARP Assay kit). The class given is biochemical. To be noted: read-out: PARP-1 Inhibitory activity IC50. On the procedure:
The activity of the compounds according to the present invention to inhibit the PARP-1 enzyme was examined using a PARP Assay kit (4671-096-K) purchased from Trevigen. The assay was performed following a modified previously reported method by Lee et al [Methods Find, Exp. Clin. Pharmacol., 27, 617-622, 2005].
Histone was coated on 384-well plate, which is a small volume PS plate (784101) of Greiner Bio-One, and left at 25° C. for 2 hours. After that, the plate was rinsed four times with PBS (7.5 mM Na2HPO4, 2.5 mM NaH2PO4, 145 mM NaCl, pH 7.4), and in order to prevent non-specific reaction, the Strep-diluent (provided from kit of Trevigen) was added and left at 25° C. for one hour. After one hour, the plate was again rinsed with PBS four times, and the compounds of the Examples in various concentrations were put into reactant containing PARP-1 enzyme (0.12 unit/well), 2×PARP cocktail (1.95 mM NAD^+, 50 uM biotinylated NAD^+, and activated DNA in 50 mM Tris pH 8.0, 25 mM MgCl2) and allowed to react at 25° C. for 30 minutes. After 30 minutes, each well was rinsed with PBS four times, and in order to measure the amount of rybosylation by the PARP enzyme, strepavidin-linked peroxidase (Strep-HRP, 1:1000 diluted) was added and allowed to react at 37° C. for 30 minutes. The plate was rinsed with PBS four times, and TACS-Sapphire substrate was put and allowed to react at 25° C. for 10 minutes so that color reaction occurred. Finally, the reaction was terminated by the addition of 0.2 N HCl. The amount of histone ribosylation formed by PARP-1 enzyme was quantified at 450 nm using Wallac EnVision™ (PerkinElmer Oy, Turku, Finland).

Where [1] appears, read: PARP-1 enzyme, histone ribosylation, 450 nm.

Chain of PARP-1 enzyme (P09874 whole entry): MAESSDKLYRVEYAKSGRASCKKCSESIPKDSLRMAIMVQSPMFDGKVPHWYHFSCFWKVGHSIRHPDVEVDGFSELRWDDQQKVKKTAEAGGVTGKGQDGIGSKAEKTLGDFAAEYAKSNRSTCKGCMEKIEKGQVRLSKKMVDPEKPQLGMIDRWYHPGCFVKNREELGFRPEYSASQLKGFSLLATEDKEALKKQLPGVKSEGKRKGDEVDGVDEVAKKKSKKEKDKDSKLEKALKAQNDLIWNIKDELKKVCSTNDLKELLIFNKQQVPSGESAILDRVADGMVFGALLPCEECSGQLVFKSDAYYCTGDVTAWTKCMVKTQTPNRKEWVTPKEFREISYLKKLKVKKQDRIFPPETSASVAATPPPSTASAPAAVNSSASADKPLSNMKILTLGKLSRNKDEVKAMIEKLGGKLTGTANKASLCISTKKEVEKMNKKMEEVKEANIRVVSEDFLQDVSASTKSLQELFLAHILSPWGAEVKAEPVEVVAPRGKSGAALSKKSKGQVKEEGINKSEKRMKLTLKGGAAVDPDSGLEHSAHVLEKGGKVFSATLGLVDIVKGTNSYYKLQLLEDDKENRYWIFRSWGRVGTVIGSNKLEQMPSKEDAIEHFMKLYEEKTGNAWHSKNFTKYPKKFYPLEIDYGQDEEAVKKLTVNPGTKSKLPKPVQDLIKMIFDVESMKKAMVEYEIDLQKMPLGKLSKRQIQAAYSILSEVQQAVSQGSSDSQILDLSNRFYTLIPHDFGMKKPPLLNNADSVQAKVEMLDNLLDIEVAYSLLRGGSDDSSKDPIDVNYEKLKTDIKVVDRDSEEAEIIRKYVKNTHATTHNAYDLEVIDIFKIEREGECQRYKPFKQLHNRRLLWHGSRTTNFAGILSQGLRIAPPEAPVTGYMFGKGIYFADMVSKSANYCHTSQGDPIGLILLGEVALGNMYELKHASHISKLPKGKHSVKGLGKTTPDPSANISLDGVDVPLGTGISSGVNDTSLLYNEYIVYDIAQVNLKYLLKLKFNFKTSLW

`COc1ccc2c3c(c(=O)[nH]c2c1)CCCN3` [Example 1, 8-Methoxy-1,2,3,4-tetrahydrobenzo[h][1,6]naphthyridine-5(6H)-one hydrochloride]: the IC50 under setting [1] was over 4 µM.
In the case of `COc1ccc2[nH]c(=O)c3c(c2c1)NCCC3` [Example 3, 9-Methoxy-1,2,3,4-tetrahydrobenzo[h][1,6]naphthyridine-5(6H)-one hydrochloride], the 50% inhibitory concentration (IC50) under setting [1] was 0.5 µM.
On the same count and under the same terms, to `CCCN1CCCc2c1c1cc(OC)ccc1[nH]c2=O` [Example 6, 9-Methoxy-1-propyl-1,2,3,4-tetrahydrobenzo[h][1,6]naphthyridine-5(6H)-one hydrochloride] belongs over 4 µM.
On the same count and under the same terms, in the case of `CN1CCCc2c1c1ccccc1[nH]c2=O` [Example 7, 1-Methyl-1,2,3,4-tetrahydrobenzo[h][1,6]naphthyridine-5(6H)-one hydrochloride] it was over 4 µM; in that of `COc1ccc2[nH]c(=O)c3c(c2c1)N(C)CCC3` [Example 8, 9-Methoxy-1-methyl-1,2,3,4-tetrahydrobenzo[h][1,6]naphthyridine-5(6H)-one hydrochloride], over 4 µM; in that of `CCN1CCCc2c1c1cc(OC)ccc1[nH]c2=O` [Example 9, 1-Ethyl-9-methoxy-1,2,3,4-tetrahydrobenzo[h][1,6]naphthyridine-5(6H)-one hydrochloride], over 4 µM.
Same read-out and setting: to `CN1CCCc2c1c1cc(O)ccc1[nH]c2=O` [Example 10, 1-Methyl-9-hydroxy-1,2,3,4-tetrahydrobenzo[h][1,6]naphthyridine-5(6H)-one hydrochloride] belongs over 4 µM.
With `CCCN1CCC(Oc2ccc3[nH]c(=O)c4c(c3c2)NCCC4)CC1` [Example 11, 9-(1-Propylpiperidine-4-yloxy)-1,2,3,4-tetrahydrobenzo[h][1,6]naphthyridine-5(6H)-one dihydrochloride], the IC50 stood at 1.03 µM.
Still for that read-out and setting: in the case of `CN1CCC(Oc2ccc3[nH]c(=O)c4c(c3c2)NCCC4)CC1` [Example 12, 9-(1-Methylpiperidine-4-yloxy)-1,2,3,4-tetrahydrobenzo[h][1,6]naphthyridine-5(6H)-one dihydrochloride] it was 1.07 µM.
Same read-out and setting: in the case of `CN1CCCc2c1c1cc(OC3CCNCC3)ccc1[nH]c2=O` [Example 13, 1-Methyl-9-(piperidine-4-yloxy)-1,2,3,4-tetrahydrobenzo[h][1,6]naphthyridine-5(6H)-one dihydrochloride] it was 3.85 µM.
Turning to `CN1CCC(Oc2ccc3[nH]c(=O)c4c(c3c2)N(C)CCC4)CC1` [Example 14, 1-Methyl-9-(1-methylpiperidine-4-yloxy)-1,2,3,4-tetrahydrobenzo[h][1,6]naphthyridine-5(6H)-one dihydrochloride], under setting [1], the IC50 is over 4 µM.
Consider `CN(C)CCOc1ccc2[nH]c(=O)c3c(c2c1)NCCC3` [Example 16, 9-[2-(Dimethylamino)ethoxy]-1,2,3,4-tetrahydrobenzo[h][1,6]naphthyridine-5(6H)-one dihydrochloride], for which the IC50 is 0.37 µM. Further, under setting [1], the IC50 was under 1 µM.
On to `O=c1[nH]c2ccc(OCCN3CCNCC3)cc2c2c1CCCN2` [Example 19, 9-[2-(Piperazine-1yl)ethoxy]-1,2,3,4-tetrahydrobenzo[h][1,6]naphthyridine-5(6H)-one trihydrochloride], for which the IC50 was determined as 1.48 µM.
As for `O=c1[nH]c2ccc(OCCCN3CCCCC3)cc2c2c1CCCN2` [Example 21, 9-[3-(Piperidine-1yl)propoxy]-1,2,3,4-tetrahydrobenzo[h][1,6]naphthyridine-5(6H)-one dihydrochloride], under setting [1], the IC50 is over 4 µM.
In the case of `NCCOc1ccc2[nH]c(=O)c3c(c2c1)NCCC3` [Example 22, 9-(2-Aminoethoxy)-1,2,3,4-tetrahydrobenzo[h][1,6]naphthyridine-5(6H)-one dihydrochloride], the IC50 amounted to 1.16 µM.
The same measure, in the same setting: in the case of `O=c1[nH]c2ccc(OCCN3CCC(c4ccccc4)CC3)cc2c2c1CCCN2` [Example 23, 9-[2-(4-Phenylpiperidine-1yl)ethoxy]-1,2,3,4-tetrahydrobenzo[h][1,6]naphthyridine-5(6H)-one dihydrochloride] it was 1.43 µM.
On to `O=c1[nH]c2ccc(OCCO)cc2c2c1CCCN2` [Example 24, 9-(2-Hydroxyethoxy)-1,2,3,4-tetrahydrobenzo[h][1,6]naphthyridine-5(6H)-one hydrochloride], for which, under setting [1], the IC50 worked out at 1.08 µM.
The same measure, in the same setting: in the case of `O=c1[nH]c2ccc(OCCc3ccccc3)cc2c2c1CCCN2` [Example 25, 9-Penethoxy-1,2,3,4-tetrahydrobenzo[h][1,6]naphthyridine-5(6H)-one dihydrochloride] it was over 4 µM.
With `CCN(CC)CCOc1ccc2[nH]c(=O)c3c(c2c1)NCCC3` [Example 26, 9-[2-(Diethylamino)ethoxy]-1,2,3,4-tetrahydrobenzo[h][1,6]naphthyridine-5(6H)-one dihydrochloride], the IC50 came out at 0.39 µM. The IC50 under setting [1] is under 1 µM.
As for `O=c1[nH]c2ccc(OCCN3CCOCC3)cc2c2c1CCCN2` [Example 27, 9-(2-Morpholinoethoxy)-1,2,3,4-tetrahydrobenzo[h][1,6]naphthyridine-5(6H)-one dihydrochloride], the half-maximal inhibitory concentration (IC50) turned out to be 2.64 µM.
Take `CC[N+]1(CC)CCN(CCOc2ccc3[nH]c(=O)c4c(c3c2)NCCC4)CC1` [Example 28, 1,1-Diethyl-4-[2-(5-oxo-1,2,3,4,5,6-hexahydrobenzo[h][1,6]naphthyridine-9-yloxy]ethyl)piperazine-1-ium chloride]: the IC50 under setting [1] is over 4 µM.
In the case of `CN1CCCc2c1c1cc(OCCN3CCCCC3)ccc1[nH]c2=O` [Example 30, 1-Methyl-9-[2-(piperidine-1-yl)ethoxy]-1,2,3,4-tetrahydrobenzo[h][1,6]naphthyridine-5(6H)-one dihydrochloride], the half-maximal inhibitory concentration (IC50) worked out at 3.11 µM.
With `CN(C)CCc1ccc2[nH]c(=O)c3c(c2c1)NCCC3` [Example 31, 9-[2-(Dimethylamino)ethyl]-1,2,3,4-tetrahydrobenzo[h][1,6]naphthyridine-5(6H)-one dihydrochloride], the IC50 under setting [1] was 1.07 µM.
Turning to `CN(C)CCCc1ccc2[nH]c(=O)c3c(c2c1)NCCC3` [Example 33, 9-[3-(Dimethylamino)propyl]-1,2,3,4-tetrahydrobenzo[h][1,6]naphthyridine-5(6H)-one dihydrochloride], the IC50 amounted to 0.93 µM. Further, the IC50 under setting [1] is under 1 µM.
For `O=c1[nH]c2cc(OCCN3CCCCC3)ccc2c2c1CCCN2` [Example 35, 8-[2-(Piperidine-1yl)ethoxy]-1,2,3,4-tetrahydrobenzo[h][1,6]naphthyridine-5(6H)-one dihydrochloride], the half-maximal inhibitory concentration (IC50) came out at 3.54 µM.
Turning to `CN(C)CCCOc1ccc2c3c(c(=O)[nH]c2c1)CCCN3` [Example 36, 8-[3-(Dimethylamino)propoxy]-1,2,3,4-tetrahydrobenzo[h][1,6]naphthyridine-5(6H)-one dihydrochloride], the IC50 stood at 3.02 µM.
Consider `CNC(C)c1ccc2c3c(c(=O)[nH]c2c1)CCCN3` (centres unmarked) [Example 39, 8-[1-(Methylamino)ethyl]-1,2,3,4-tetrahydrobenzo[h][1,6]naphthyridine-5(6H)-one dihydrochloride], for which the IC50 was determined as 0.1 µM. The IC50 under setting [1] is under 1 µM.
For `CCc1ccc2c3c(c(=O)[nH]c2c1)CCCN3` [Example 40, 8-Ethyl-1,2,3,4-tetrahydrobenzo[h][1,6]naphthyridine-5(6H)-one hydrochloride], the IC50 is over 4 µM.

The record behind these values is patent publication US8815891B2, “Tricyclic derivative or pharmaceutically acceptable salts thereof, preparation method thereof, and pharmaceutical composition containing the same” (Je Il Pharmaceutical Co., Ltd., priority 2008, dated 2014).
